Publication PMC3350394, “Kinetic analysis and test-retest variability of the radioligand [^11C](R)-PK11195 binding to TSPO in the human brain - a PET study in control subjects” (EJNMMI Research, 2012)
“And” between values parts separate entries of the source, which are not always exact repeats. Identical values can stand only once.

Target: TSPO (Homo sapiens, UniProt P30536)
Assay: PET, kinetic compartment analysis (1TCM, 2TCM) with metabolite-corrected arterial input function
Conditions: for BPND (k3/k4) Mean: mean of test and retest; for BPND (k3/k4) Retest / BPND (k3/k4) Test / VT (2TCM): mean(SD); for BPND (k3/k4) Retest / BPND (k3/k4) Test: 6 subjects; for ICC: BPND test-retest
Procedure: Each subject was placed recumbent with the head in the PET system. A head fixation system with an individual plaster helmet was used. A cannula was inserted into the left radial artery and another into the right antecubital vein. A sterile phosphate buffer (pH = 7.4) containing radioligand was injected as a bolus over 2 s into the cubital vein. The cannula was then immediately flushed with a 10-mL saline solution. In each individual, the measurement was repeated after approximately 6 weeks.
The PET system used was ECAT Exact HR 47 (Siemens/CTI, Knoxville, TN, USA), with an in-plane and an axial resolution of 3.6 and 4.0 mm, respectively, full width at half maximum (FWHM). The radioactivity in the brain was measured continuously for 60 min using a pre-programmed sequence of […] (20 s × 9, 30 s × 6, 180 s × 5, 300 s × 5). […] The images were reconstructed with a Hanning filter (FWHM = 2 mm) in a matrix of 128 × 128 × 47 voxels, yielding a voxel size of 2.03 × 2.03 × 3.125 mm. Attenuation correction was done using transmission scan data obtained for each subject.
[^11C](R)-PK11195 binding to TSPO was quantified using kinetic compartment analyses with the metabolite-corrected arterial plasma curve as input function. Two compartment models (one- and two-tissue) were used to fit the model to the TACs. The fractional volume of blood present in the tissue volume and bolus time were estimated for each individual, each occasion, by fitting the whole brain TAC with a two-tissue compartment model.
The one-tissue compartment model (1TCM) describes one compartment which is a composite of free, non-specifically and specifically bound radioligands. The two rate constants, K1 and k2, describe the influx and efflux rates across the blood-brain barrier, respectively.
The two-tissue compartment model (2TCM) has been described in detail in the literature. The two-tissue compartments are defined as the radioactivity concentration of a nondisplaceable radioligand in the brain (CND) and the radioactivity concentration of a radioligand specifically bound to receptors (CB). In this model, four rate constants (K1, k2, k3 and k4) explain the time curves for radioligand in the brain. In short, the four rate constants were determined by curve fitting with a weighted non-linear least squares fitting technique with constraint-restricting parameters between 0 and 0.9. Each initial value for K1, k2, k3 and k4 was 0.5, 0.1, 0.5 and 0.5, respectively. The local minimum of the sum of the squared residuals was determined by iteration.
Regional [^11C](R)-PK11195 binding was expressed using the concept of the total distribution volume (VT), which is defined by the following equation, using kinetic constants obtained from 2TCM [16, 20, 21].
Specific [^11C](R)-PK11195 binding was expressed as binding potential relative to nondisplaceable binding (BPND) as follows:
The fractional volume of blood present in the tissue volume was determined for each individual, each occasion. It was obtained by fitting whole brain TAC with a 2TCM with six parameters (K1, k2, k3, k4, fractional blood volume (VB) and time shift between plasma input function and PET TAC (tbolus)) and parameters VB and tbolus subsequently applied for each brain region.
The reproducibility of two successive PET measurements was analysed by means of descriptive statistics (mean, range, SD, coefficient of variance (CV), difference in measurement (error in percent) and intra-class correlation coefficient (ICC)). The ICC was calculated from the between-subject and within-subject variations, using the expression: […]

[1] = putamen (R), BPND test-retest difference in measurements
[2] = thalamus (L), BPND test-retest difference in measurements
[3] = thalamus (R), BPND test-retest difference in measurements
[4] = thalamus, BPND test-retest difference in measurements
[5] = thalamus, VT (2TCM) test-retest
[6] = white matter, 1TCM, retest (2), individual subjects 1-6
[7] = white matter, 1TCM, retest (2), mean(SD/CV) of 6 subjects
[8] = white matter, 1TCM, test (1), individual subjects 1-6
[9] = white matter, 1TCM, test (1), mean(SD/CV) of 6 subjects
[10] = white matter, 2TCM, retest (2), individual subjects 1-6
[11] = white matter, 2TCM, retest (2), mean(SD/CV) of 6 subjects
[12] = white matter, 2TCM, test (1), individual subjects 1-6
[13] = white matter, 2TCM, test (1), mean(SD/CV) of 6 subjects
[14] = white matter, BPND test-retest difference in measurements
[15] = white matter, VT (2TCM) test-retest
[16] = whole brain, BPND test-retest difference in measurements
[17] = whole brain, VT (2TCM) test-retest

Sequence of TSPO (P30536 whole entry): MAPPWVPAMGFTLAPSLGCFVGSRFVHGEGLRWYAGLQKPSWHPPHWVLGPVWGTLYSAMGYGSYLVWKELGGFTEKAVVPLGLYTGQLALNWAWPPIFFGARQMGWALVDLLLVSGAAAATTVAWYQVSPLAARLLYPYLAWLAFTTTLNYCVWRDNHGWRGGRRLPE

Question: Which results are given for `CC[C@@H](C)N([11CH3])C(=O)c1cc2ccccc2c(-c2ccccc2Cl)n1` [[^11C](R)-PK11195]?
Answer: BPND (k3/k4) Mean (putamen (R), 2TCM): 1.41; BPND (k3/k4) Retest (putamen (R), 2TCM): 1.56(0.73); BPND (k3/k4) Test (putamen (R), 2TCM): 1.27(0.48); ICC (putamen (R)): -0.01; Error % mean(SD) [1]: -32(72) %; Error range (%) [1]: -145 to 34%; BPND (k3/k4) Mean (putamen, 2TCM): 1.38; BPND (k3/k4) Retest (putamen, 2TCM): 1.50(0.69); BPND (k3/k4) Test (putamen, 2TCM): 1.20(0.28); ICC (putamen): 0.09; Error range (%) (putamen, BPND test-retest difference in measurements): -138 to 21%; Error % mean(SD) (putamen, VT (2TCM) test-retest): 17(38) %; Error range (%) (putamen, VT (2TCM) test-retest): -32 to 78%; VT (2TCM) (putamen, retest): 0.93(0.19); VT (2TCM) (putamen, test): 0.83(0.21); BPND (k3/k4) Mean (thalamus (L), 2TCM): 1.26; BPND (k3/k4) Retest (thalamus (L), 2TCM): 1.42(0.59); BPND (k3/k4) Test (thalamus (L), 2TCM): 1.11(0.25); ICC (thalamus (L)): 0.17; Error % mean(SD) [2]: -32(64) %; Error range (%) [2]: -136 to 39%; BPND (k3/k4) Mean (thalamus (R), 2TCM): 1.60; BPND (k3/k4) Retest (thalamus (R), 2TCM): 1.86(0.56); BPND (k3/k4) Test (thalamus (R), 2TCM): 1.34(0.43); ICC (thalamus (R)): 0.16; Error % mean(SD) [3]: -46(50) %; Error range (%) [3]: -136 to 17%; BPND (k3/k4) Mean (thalamus, 2TCM): 1.36; BPND (k3/k4) Retest (thalamus, 2TCM): 1.53(0.45); BPND (k3/k4) Test (thalamus, 2TCM): 1.19(0.28); ICC (thalamus): 0.57; Error % mean(SD) [4]: -29% and -29(33) %; Error range (%) [4]: -82 to 9%; Error % mean(SD) [5]: -6(29) %; Error range (%) [5]: -47 to 40%; VT (2TCM) (thalamus, retest): 0.80 (0.23); VT (2TCM) (thalamus, test): 0.90(0.27); K1 [6]: 0.075 mL/cc/min and 0.027 mL/cc/min and 0.032 mL/cc/min and 0.033 mL/cc/min and 0.042 mL/cc/min and 0.046 mL/cc/min; k2 [6]: 0.085 min⁻¹ and 0.066 min⁻¹ and 0.078 min⁻¹ and 0.064 min⁻¹ and 0.071 min⁻¹ and 0.089 min⁻¹; K1 [7]: 0.043(0.017/39) mL/cc/min; k2 [7]: 0.076(0.010/13) min^-1; K1 [8]: 0.049 mL/cc/min and 0.027 mL/cc/min and 0.048 mL/cc/min and 0.030 mL/cc/min and 0.055 mL/cc/min and 0.044 mL/cc/min; k2 [8]: 0.066 min⁻¹ and 0.081 min⁻¹ and 0.072 min⁻¹ and 0.086 min⁻¹ and 0.071 min⁻¹; K1 [9]: 0.042(0.011/26) mL/cc/min; k2 [9]: 0.074(0.008/11) min^-1; BPND (k3/k4) Mean (white matter, 2TCM): 1.84; BPND (k3/k4) Retest (white matter, 2TCM): 1.78(0.42); BPND (k3/k4) Test (white matter, 2TCM): 1.90(0.42); K1 [10]: 0.060 mL/cc/min and 0.097 mL/cc/min and 0.035 mL/cc/min and 0.045 mL/cc/min and 0.039 mL/cc/min and 0.051 mL/cc/min; k2 [10]: 0.206 min⁻¹ and 0.209 min⁻¹ and 0.164 min⁻¹ and 0.223 min⁻¹ and 0.126 min⁻¹ and 0.144 min⁻¹; k3 [10]: 0.042 min⁻¹ and 0.061 min⁻¹ and 0.041 min⁻¹ and 0.046 min⁻¹ and 0.028 min⁻¹ and 0.033 min⁻¹; k4 [10]: 0.025 min⁻¹ and 0.045 min⁻¹ and 0.020 min⁻¹ and 0.019 min⁻¹ and 0.018 min⁻¹ and 0.022 min⁻¹; K1 [11]: 0.055(0.023/42) mL/cc/min; k2 [11]: 0.179(0.040/22) min^-1; k3 [11]: 0.042(0.011/26) min^-1; k4 [11]: 0.025(0.010/40) min^-1; K1 [12]: 0.061 mL/cc/min and 0.032 mL/cc/min and 0.035 mL/cc/min and 0.067 mL/cc/min and 0.056 mL/cc/min; k2 [12]: 0.154 min⁻¹ and 0.124 min⁻¹ and 0.184 min⁻¹ and 0.138 min⁻¹ and 0.165 min⁻¹ and 0.176 min⁻¹; k3 [12]: 0.043 min⁻¹ and 0.024 min⁻¹ and 0.034 min⁻¹ and 0.037 min⁻¹; k4 [12]: 0.026 min⁻¹ and 0.019 min⁻¹ and 0.014 min⁻¹ and 0.012 min⁻¹ and 0.030 min⁻¹; K1 [13]: 0.052(0.015/29) mL/cc/min; k2 [13]: 0.157(0.02/13) min^-1; k3 [13]: 0.034(0.009/26) min^-1; k4 [13]: 0.020(0.007/35) min^-1; ICC (white matter): 0.73; Error % mean(SD) [14]: -4% and -8% and -8(18) %; Error range (%) [14]: -25 to 21%; Error % mean(SD) [15]: -9(25) %; Error range (%) [15]: -42 to 28%; VT (2TCM) (white matter, retest): 0.88 (0.19); VT (2TCM) (white matter, test): 0.99(0.17); BPND (k3/k4) Mean (whole brain, 2TCM): 1.67; BPND (k3/k4) Retest (whole brain, 2TCM): 1.68(0.35); BPND (k3/k4) Test (whole brain, 2TCM): 1.65(0.33); ICC (whole brain): 0.57; Error % mean(SD) [16]: 4% and -4(19) %; Error range (%) [16]: -25 to 22%; Error % mean(SD) [17]: -7(20) %; Error range (%) [17]: -38 to 21%; VT (2TCM) (whole brain, retest): 0.75 (0.16); VT (2TCM) (whole brain, test): 0.82(0.18)
